In PMC9697025, “Discovery of N-Containing (-)-Borneol Esters as Respiratory Syncytial Virus Fusion Inhibitors” (Pharmaceuticals, 2022):

Key:
[1] = MTT cytotoxicity assay with non-infected HEp2 cells; conditions: human
[2] = test system: RSV A strain A2; assay: In vitro antiviral assay against RSV A strain A2 in HEp-2 cells (ELISA, virus titer); format: cell-based, respiratory syncytial virus; conditions: for IC50: human respiratory syncytial virus, HEp-2, 50% decrease in virus replication, RSV A strain A2 in HEp-2 cells, mean ± SD; for SI: selectivity index, CC50/IC50 ratio, RSV A2 / HEp-2

Compound | CC50 at 24 h [1] | IC50 [2] | SI [2]
CC1(C)[C@H]2CC[C@]1(C)[C@H](OC(=O)CCCN1CCCCCC1)C2 [Compound 8c] | 159 ± 12.4 µM | 34.2 ± 1.1 µM | 5
CC1CCN(CC(=O)O[C@@H]2C[C@@H]3CC[C@@]2(C)C3(C)C)CC1 [Compound 7a] | 399 ± 4.8 µM | 109 ± 10.7 µM | 4
CCN1CCN(CCC(=O)O[C@@H]2C[C@@H]3CC[C@@]2(C)C3(C)C)CC1 [Compound 10b] | 117 ± 11.7 µM | 5.9 ± 1.4 µM | 20
CC1(C)[C@H]2CC[C@]1(C)[C@H](OC(=O)CN1CCN(Cc3ccccc3)CC1)C2 [Compound 11a] | 51.3 ± 4.9 µM | 21.6 ± 2.6 µM | 2
CCN1CCN(CCCC(=O)O[C@@H]2C[C@@H]3CC[C@@]2(C)C3(C)C)CC1 [Compound 10c] | 208 ± 21.4 µM | 9.8 ± 2.5 µM | 21
CCN1CCN(CC(=O)O[C@@H]2C[C@@H]3CC[C@@]2(C)C3(C)C)CC1 [Compound 10a] | 217 ± 18.9 µM | 57.7 ± 2.2 µM | 4
CN1CCN(CCCC(=O)O[C@@H]2C[C@@H]3CC[C@@]2(C)C3(C)C)CC1 [Compound 9c] | 198 ± 13.6 µM | 5.1 ± 0.8 µM | 39
CC1(C)[C@H]2CC[C@]1(C)[C@H](OC(=O)CCCN1CCC(Cc3ccccc3)CC1)C2 [Compound 13c, (1S,2R,4S)-1,7,7-trimethylbicyclo [2.2.1]heptan-2-yl 4-(4-benzylpiperidin-1-yl)butanoate] | 40.2 ± 5.1 µM | 7.3 ± 0.6 µM | 5
CN1CCN(CCC(=O)O[C@@H]2C[C@@H]3CC[C@@]2(C)C3(C)C)CC1 [Compound 9b] | 169 ± 12.1 µM | 17.2 ± 1.9 µM | 10
CC1(C)[C@H]2CC[C@]1(C)[C@H](OC(=O)CCN1CCC(Cc3ccccc3)CC1)C2 [Compound 13b, (1S,2R,4S)-1,7,7-trimethylbicyclo [2.2.1]heptan-2-yl 3-(4-benzylpiperidin-1-yl)propanoate] | 25.5 ± 11.4 µM | 14.9 ± 1 µM | 2
CC1(C)[C@H]2CC[C@]1(C)[C@H](OC(=O)CCN1CCCCCC1)C2 [Compound 8b] | 345 ± 24.6 µM | 97.6 ± 8.9 µM | 3
CC1(C)[C@H]2CC[C@]1(C)[C@H](OC(=O)CN1CCCCCC1)C2 [Compound 8a] | 85.2 ± 5.6 µM | 61.3 ± 3.2 µM | 1
CC1(C)[C@H]2CC[C@]1(C)[C@H](OC(=O)CN1CCCCC1)C2 [Compound 6a] | 129 ± 9.8 µM | 41.9 ± 3.1 µM | 3
CC1(C)[C@H]2CC[C@]1(C)[C@H](OC(=O)CCCN1CCN(c3ccccc3F)CC1)C2 [Compound 15c, (1S,2R,4S)-1,7,7-trimethylbicyclo [2.2.1]heptan-2-yl 4-(4-(2-fluorophenyl)piperazin-1-yl)butanoate] | 27.8 ± 7.4 µM | 14.7 ± 2.1 µM | 2
CCN(CC)CCC(=O)O[C@@H]1C[C@@H]2CC[C@@]1(C)C2(C)C [Compound 4b] | 391 ± 23.1 µM | 99.5 ± 8.7 µM | 4
CCN(CC)CC(=O)O[C@@H]1C[C@@H]2CC[C@@]1(C)C2(C)C [Compound 4a] | 669 ± 56.4 µM | 355 ± 51.1 µM | 2

Compound | CC50 at 24 h [1] | IC50 [2] | SI [2]
CC1(C)[C@H]2CC[C@]1(C)[C@H](OC(=O)CN1CCN(c3ccccc3F)CC1)C2 [Compound 15a, (1S,2R,4S)-1,7,7-trimethylbicyclo [2.2.1]heptan-2-yl 2-(4-(2-fluorophenyl)piperazin-1-yl)acetate] | 27.5 ± 3.8 µM | 2.7 ± 0.7 µM | 10
CC1(C)[C@H]2CC[C@]1(C)[C@H](OC(=O)CCCN1CCN(Cc3ccccc3)CC1)C2 [Compound 11c] | 82.8 ± 7.9 µM | 25.1 ± 3.5 µM | 3
CC1(C)[C@H]2CC[C@]1(C)[C@H](OC(=O)CCN1CCSCC1)C2 [Compound 12b, (1S,2R,4S)-1,7,7-trimethylbicyclo [2.2.1]heptan-2-yl 3-thiomorpholinopropanoate] | 86 ± 7.4 µM | 96.3 ± 3.5 µM | 1
CC1(C)[C@H]2CC[C@]1(C)[C@H](OC(=O)CCN1CCN(c3ccccc3F)CC1)C2 [Compound 15b, (1S,2R,4S)-1,7,7-trimethylbicyclo [2.2.1]heptan-2-yl 3-(4-(2-fluorophenyl)piperazin-1-yl)propanoate] | 20.1 ± 12.1 µM | 8.2 ± 0.8 µM | 2
CC1CCN(CCC(=O)O[C@@H]2C[C@@H]3CC[C@@]2(C)C3(C)C)CC1 [Compound 7b] | 159 ± 17.1 µM | 6.2 ± 2.1 µM | 26
CC1(C)[C@H]2CC[C@]1(C)[C@H](OC(=O)CCCN1CCCCC1)C2 [Compound 6c] | 117 ± 11.1 µM | 39 ± 4.1 µM | 3
CC1(C)[C@H]2CC[C@]1(C)[C@H](OC(=O)CCCN1CCSCC1)C2 [Compound 12c, (1S,2R,4S)-1,7,7-trimethylbicyclo [2.2.1]heptan-2-yl 4-thiomorpholinobutanoate] | 56.5 ± 3.8 µM | 75.3 ± 7.9 µM | 1
CC1(C)[C@H]2CC[C@]1(C)[C@H](OC(=O)CN1CCN(c3ccccc3)CC1)C2 [Compound 14a, (1S,2R,4S)-1,7,7-Trimethylbicyclo [2.2.1]heptan-2-yl 2-(4-phenylpiperazin-1-yl)acetate] | 26.4 ± 3.8 µM | 4.6 ± 1.1 µM | 6
CC1(C)[C@H]2CC[C@]1(C)[C@H](OC(=O)CN1CCSCC1)C2 [Compound 12a, (1S,2R,4S)-1,7,7-Trimethylbicyclo [2.2.1]heptan-2-yl 2-thiomorpholinoacetate] | 126 ± 10.5 µM | 69.6 ± 16.2 µM | 2
CC1(C)[C@H]2CC[C@]1(C)[C@H](OC(=O)CN1CCC(Cc3ccccc3)CC1)C2 [Compound 13a, (1S,2R,4S)-1,7,7-trimethylbicyclo [2.2.1]heptan-2-yl 2-(4-benzylpiperidin-1-yl)acetate] | 116 ± 13.4 µM | 21.6 ± 1.8 µM | 5
CC1(C)[C@H]2CC[C@]1(C)[C@H](OC(=O)CCCN1CCN(c3ccccc3)CC1)C2 [Compound 14c, (1S,2R,4S)-1,7,7-trimethylbicyclo [2.2.1]heptan-2-yl 4-(4-phenylpiperazin-1-yl)butanoate] | 23.9 ± 8.7 µM | 12 ± 2 µM | 2
CC1CCN(CCCC(=O)O[C@@H]2C[C@@H]3CC[C@@]2(C)C3(C)C)CC1 [Compound 7c] | 59.1 ± 4.8 µM | 19.9 ± 2.3 µM | 3
CN(C)CC(=O)O[C@@H]1C[C@@H]2CC[C@@]1(C)C2(C)C [Compound 3a] | 497 ± 53.2 µM | 134 ± 19.5 µM | 4
CCN(CC)CCCC(=O)O[C@@H]1C[C@@H]2CC[C@@]1(C)C2(C)C [Compound 4c] | 152 ± 12.1 µM | 30.5 ± 2.9 µM | 5
CN(C)CCCC(=O)O[C@@H]1C[C@@H]2CC[C@@]1(C)C2(C)C [Compound 3c] | 228 ± 23.5 µM | 23.9 ± 3.7 µM | 10
CC1(C)[C@H]2CC[C@]1(C)[C@H](OC(=O)CCN1CCN(Cc3ccccc3)CC1)C2 [Compound 11b] | 49.4 ± 5.6 µM | 46.8 ± 7.2 µM | 1
